Laboratory results taken from US20240360113A1, “AMINOARYL-INTEGRIN AGONISTS COMPOUNDS” (Texas Heart Institute, priority 2021, published 2024).

Assays:
α4β1/VCAM-1 = molecular target: T1, α4β1/VCAM-1 (Homo sapiens, UniProt P05556+P13612); assay: Static cell adhesion assay, Jurkat cells on VCAM-1 (VLA-4 agonist activity); format: cell-based; conditions: EC50 relative to THI0349 (average 11 uM) run on the same plate; Jurkat cells, 50% FBS
T1 construct: The Jurkat (VCAM-1 assays) and HSB (ICAM-1 assays) cell lines were obtained from American Type Culture Collection; endogenous in cells; host or cells: Jurkat (ATCC)
Method in brief: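 Calcein-labelled Jurkat cells (2×10^5/well) were added to wells coated with a sub-optimal level of human VCAM-1 (0.5 μg/mL) in PBS, 1 mM MgCl2, 50% FBS with compound in 1% DMSO. After 30 min at 37° C. and washing, adherent-cell fluorescence was read. EC50 was the concentration giving 50% of maximal response.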

αLβ2/ICAM-1 = molecular target: T2, αLβ2/ICAM-1 (Homo sapiens, UniProt P05107+P20701); assay: Static cell adhesion assay, HSB cells on ICAM-1 (LFA-1; LAD); format: cell-based; conditions: RFU of compound / RFU of THI0349, both at the same concentration
T2 construct: The Jurkat (VCAM-1 assays) and HSB (ICAM-1 assays) cell lines were obtained from American Type Culture Collection; endogenous in cells; host or cells: HSB (ATCC)
Method in brief: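 HSB cells were labeled with calcein-AM for 30 minutes, washed, resuspended in binding buffer (PBS with 2 mM MgCl2, 5 mM EGTA, 50% FBS) and plated at 2×10^5 cells/well in triplicate onto 96-well plates coated overnight at 4° C with ICAM-1 (5 μg/mL in 50 μL TBS) and blocked with 2% BSA. Compounds were tested in 1% DMSO. After 30 minutes at 37° C and three washes, adherent cells were lysed and fluorescence was read; results are compound RFU divided by THI0349 RFU.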

T1 sequence (P13612 34-1032): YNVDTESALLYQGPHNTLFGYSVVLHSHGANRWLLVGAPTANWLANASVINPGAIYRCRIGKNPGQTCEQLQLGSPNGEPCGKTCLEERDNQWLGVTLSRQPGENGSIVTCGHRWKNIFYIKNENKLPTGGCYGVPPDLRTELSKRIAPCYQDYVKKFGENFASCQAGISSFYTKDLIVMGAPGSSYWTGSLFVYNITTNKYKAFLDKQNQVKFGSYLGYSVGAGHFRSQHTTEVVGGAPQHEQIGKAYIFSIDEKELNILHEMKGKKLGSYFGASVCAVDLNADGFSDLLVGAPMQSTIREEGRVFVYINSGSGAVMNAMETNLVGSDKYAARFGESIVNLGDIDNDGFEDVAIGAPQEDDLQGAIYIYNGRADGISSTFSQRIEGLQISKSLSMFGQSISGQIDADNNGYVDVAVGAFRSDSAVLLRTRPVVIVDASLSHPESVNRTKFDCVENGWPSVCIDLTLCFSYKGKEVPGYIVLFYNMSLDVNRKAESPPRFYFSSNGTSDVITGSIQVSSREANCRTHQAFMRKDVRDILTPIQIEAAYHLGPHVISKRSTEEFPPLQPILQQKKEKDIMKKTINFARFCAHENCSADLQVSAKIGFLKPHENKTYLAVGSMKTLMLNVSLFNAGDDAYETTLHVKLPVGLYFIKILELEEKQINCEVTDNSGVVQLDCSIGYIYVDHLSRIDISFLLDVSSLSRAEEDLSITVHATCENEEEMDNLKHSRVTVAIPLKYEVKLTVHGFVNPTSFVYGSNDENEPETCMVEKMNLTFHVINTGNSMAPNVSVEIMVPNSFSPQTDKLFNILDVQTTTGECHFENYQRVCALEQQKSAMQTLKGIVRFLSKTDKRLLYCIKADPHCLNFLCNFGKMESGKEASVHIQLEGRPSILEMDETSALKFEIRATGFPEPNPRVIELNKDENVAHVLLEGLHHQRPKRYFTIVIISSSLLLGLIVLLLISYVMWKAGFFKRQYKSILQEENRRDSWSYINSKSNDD
T1 sequence (P05556 21-798): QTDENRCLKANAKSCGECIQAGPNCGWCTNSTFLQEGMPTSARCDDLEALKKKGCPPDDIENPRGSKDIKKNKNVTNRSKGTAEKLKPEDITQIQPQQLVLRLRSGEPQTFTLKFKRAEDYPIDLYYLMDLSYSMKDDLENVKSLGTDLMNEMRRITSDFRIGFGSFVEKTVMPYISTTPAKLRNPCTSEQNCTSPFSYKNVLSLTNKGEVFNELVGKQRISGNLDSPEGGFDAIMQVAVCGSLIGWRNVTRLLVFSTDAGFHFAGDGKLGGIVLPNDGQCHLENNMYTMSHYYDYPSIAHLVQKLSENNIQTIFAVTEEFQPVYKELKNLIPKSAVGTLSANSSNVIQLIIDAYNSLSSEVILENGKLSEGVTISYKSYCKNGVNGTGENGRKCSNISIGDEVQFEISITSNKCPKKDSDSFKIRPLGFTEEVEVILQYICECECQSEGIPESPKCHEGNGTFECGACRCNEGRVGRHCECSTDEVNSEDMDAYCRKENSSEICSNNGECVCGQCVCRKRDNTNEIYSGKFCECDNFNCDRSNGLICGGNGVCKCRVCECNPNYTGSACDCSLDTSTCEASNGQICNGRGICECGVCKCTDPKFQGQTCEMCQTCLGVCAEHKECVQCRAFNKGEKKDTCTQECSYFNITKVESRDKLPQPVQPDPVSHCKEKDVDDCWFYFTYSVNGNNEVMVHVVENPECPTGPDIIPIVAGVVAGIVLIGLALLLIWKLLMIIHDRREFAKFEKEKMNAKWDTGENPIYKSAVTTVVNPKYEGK
T2 sequence (P20701 26-1170): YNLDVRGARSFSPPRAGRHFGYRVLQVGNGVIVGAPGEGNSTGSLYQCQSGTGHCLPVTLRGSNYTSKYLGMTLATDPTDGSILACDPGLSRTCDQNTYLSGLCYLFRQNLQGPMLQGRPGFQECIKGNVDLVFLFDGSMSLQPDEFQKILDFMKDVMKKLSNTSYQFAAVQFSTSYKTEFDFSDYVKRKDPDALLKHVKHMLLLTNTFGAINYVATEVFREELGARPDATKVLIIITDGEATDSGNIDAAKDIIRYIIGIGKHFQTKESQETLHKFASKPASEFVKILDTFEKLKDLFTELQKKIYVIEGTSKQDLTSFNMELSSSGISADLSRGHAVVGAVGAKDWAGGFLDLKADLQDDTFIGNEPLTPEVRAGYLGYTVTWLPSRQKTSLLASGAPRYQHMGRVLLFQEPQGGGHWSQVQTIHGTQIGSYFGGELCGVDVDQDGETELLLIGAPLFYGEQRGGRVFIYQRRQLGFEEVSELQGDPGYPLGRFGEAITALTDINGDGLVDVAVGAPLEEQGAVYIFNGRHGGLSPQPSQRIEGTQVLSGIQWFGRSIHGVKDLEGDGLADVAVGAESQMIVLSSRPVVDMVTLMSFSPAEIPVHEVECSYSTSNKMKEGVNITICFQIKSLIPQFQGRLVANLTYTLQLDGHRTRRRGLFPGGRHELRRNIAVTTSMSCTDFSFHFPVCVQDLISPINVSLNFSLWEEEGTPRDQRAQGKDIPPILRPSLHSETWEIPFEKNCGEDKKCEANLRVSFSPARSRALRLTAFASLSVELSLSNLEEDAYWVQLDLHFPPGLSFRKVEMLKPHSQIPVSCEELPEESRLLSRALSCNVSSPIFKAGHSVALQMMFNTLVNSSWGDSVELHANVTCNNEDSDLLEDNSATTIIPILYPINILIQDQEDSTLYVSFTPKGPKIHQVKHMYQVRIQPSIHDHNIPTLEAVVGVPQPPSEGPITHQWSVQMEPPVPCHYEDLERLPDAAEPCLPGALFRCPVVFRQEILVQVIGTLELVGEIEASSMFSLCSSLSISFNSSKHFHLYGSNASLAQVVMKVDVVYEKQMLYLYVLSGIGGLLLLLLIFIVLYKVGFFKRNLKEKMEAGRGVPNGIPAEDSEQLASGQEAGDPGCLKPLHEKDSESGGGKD
T2 sequence (P05107 23-769): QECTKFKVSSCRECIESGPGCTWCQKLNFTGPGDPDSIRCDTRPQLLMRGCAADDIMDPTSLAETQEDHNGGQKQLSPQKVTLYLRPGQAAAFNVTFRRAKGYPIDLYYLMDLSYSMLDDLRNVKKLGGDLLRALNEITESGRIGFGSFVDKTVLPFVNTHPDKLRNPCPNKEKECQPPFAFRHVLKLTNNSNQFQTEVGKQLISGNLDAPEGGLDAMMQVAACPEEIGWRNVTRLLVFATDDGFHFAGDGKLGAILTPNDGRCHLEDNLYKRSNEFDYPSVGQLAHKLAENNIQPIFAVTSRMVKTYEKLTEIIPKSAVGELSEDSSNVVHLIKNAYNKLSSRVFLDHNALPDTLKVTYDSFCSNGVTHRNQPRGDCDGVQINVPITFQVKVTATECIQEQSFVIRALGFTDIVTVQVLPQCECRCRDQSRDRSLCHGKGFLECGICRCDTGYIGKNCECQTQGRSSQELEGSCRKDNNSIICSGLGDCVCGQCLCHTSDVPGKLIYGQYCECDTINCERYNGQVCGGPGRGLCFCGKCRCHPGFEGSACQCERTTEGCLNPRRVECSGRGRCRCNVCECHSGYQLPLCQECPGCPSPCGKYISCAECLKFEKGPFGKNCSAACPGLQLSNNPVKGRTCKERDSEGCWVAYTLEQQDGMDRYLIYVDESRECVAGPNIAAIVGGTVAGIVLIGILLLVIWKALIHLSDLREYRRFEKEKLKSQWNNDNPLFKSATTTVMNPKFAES

COc1ccc(CCCNC(=O)c2coc(N(Cc3cccc(OC)c3)Cc3cccc(OC)c3)n2)cc1 [Compound 20, 2-(bis(3-methoxybenzyl)amino)-N-(3-(4-methoxyphenyl)propyl)oxazole-4-carboxamide]
Group against VCAM (α4β1/VCAM-1): II (Group II is more than twice that of THI0349 but less than five times THI0349's EC50) | LAD Raw Fluorescence Units against LFA-1; Dose 3 µM; Ratio of raw counts Compound/THI0349 (αLβ2/ICAM-1): 0.19

COc1cccc(COc2cc(C)n(N(Cc3cccc(OC)c3)Cc3cccc(OC)c3)c(=O)c2)c1 [Compound 127, 1-(bis(3-methoxybenzyl)amino)-4-((3-methoxybenzyl)oxy)-6-methylpyridin-2(1H)-one]
Group against VCAM (α4β1/VCAM-1): II (Group II is more than twice that of THI0349 but less than five times THI0349's EC50) | LAD Raw Fluorescence Units against LFA-1; Dose 3 µM; Ratio of raw counts Compound/THI0349 (αLβ2/ICAM-1): 0.75

COc1cccc(COCc2cccc(N(Cc3cccc(OC)c3)Cc3cccc(OC)c3)c2)c1 [Compound 90, N,N-bis(3-methoxybenzyl)-3-(((3-methoxybenzyl)oxy)methyl)aniline]
Group against VCAM (α4β1/VCAM-1): III (Group III more than five times the EC50 of THI0349) | LAD Raw Fluorescence Units against LFA-1; Dose 3 µM; Ratio of raw counts Compound/THI0349 (αLβ2/ICAM-1): 0.09

COc1cccc(CN(Cc2cccc(OC)c2)c2nc(C)cs2)c1 [Compound 29, N,N-bis(3-methoxybenzyl)-4-methylthiazol-2-amine]
Group against VCAM (α4β1/VCAM-1): III (Group III more than five times the EC50 of THI0349) | LAD Raw Fluorescence Units against LFA-1; Dose 3 µM; Ratio of raw counts Compound/THI0349 (αLβ2/ICAM-1): 0.88

CCOC(=O)c1csc(N(C)Cc2cccc(OC)c2)n1 [Compound 106, ethyl 2-((3-methoxybenzyl)(methyl)amino)thiazole-4-carboxylate]
Group against VCAM (α4β1/VCAM-1): III (Group III more than five times the EC50 of THI0349) | LAD Raw Fluorescence Units against LFA-1; Dose 3 µM; Ratio of raw counts Compound/THI0349 (αLβ2/ICAM-1): 0.05

COc1cccc(CN(Cc2cccc(OC)c2)c2nc(CCN3CCOCC3)cs2)c1 [Compound 84, N,N-bis(3-methoxybenzyl)-4-(2-morpholinoethyl)thiazol-2-amine]
Group against VCAM (α4β1/VCAM-1): I (Group I maintains at least the same potency or better up to more than twice that of the EC50 of THI0349 ran on the same plate) | LAD Raw Fluorescence Units against LFA-1; Dose 3 µM; Ratio of raw counts Compound/THI0349 (αLβ2/ICAM-1): 0.14

COc1cccc(CN(Cc2ccc3[nH]ncc3c2)c2nc(CN3CCOCC3)cs2)c1 [Compound 77, N-((1H-indazol-5-yl)methyl)-N-(3-methoxybenzyl)-4-(morpholinomethyl)thiazol-2-amine]
Group against VCAM (α4β1/VCAM-1): II (Group II is more than twice that of THI0349 but less than five times THI0349's EC50) | LAD Raw Fluorescence Units against LFA-1; Dose 3 µM; Ratio of raw counts Compound/THI0349 (αLβ2/ICAM-1): 0.34

COc1cccc(COc2ccc(N(Cc3cccc(OC)c3)Cc3cccc(OC)c3)cc2)c1 [Compound 91, N,N-bis(3-methoxybenzyl)-4-((3-methoxybenzyl)oxy)aniline]
Group against VCAM (α4β1/VCAM-1): III (Group III more than five times the EC50 of THI0349) | LAD Raw Fluorescence Units against LFA-1; Dose 3 µM; Ratio of raw counts Compound/THI0349 (αLβ2/ICAM-1): 0.09

CCOC(=O)c1coc(N(Cc2ccc(OC)cc2)Cc2ccc(OC)cc2)n1 [Compound 15, ethyl 2-(bis(4-methoxybenzyl)amino)oxazole-4-carboxylate]
Group against VCAM (α4β1/VCAM-1): III (Group III more than five times the EC50 of THI0349) | LAD Raw Fluorescence Units against LFA-1; Dose 3 µM; Ratio of raw counts Compound/THI0349 (αLβ2/ICAM-1): 0.52

COc1cccc(CN(Cc2cccc(OC)c2)c2nc(COCCOCCN3CCCCC3)cs2)c1 [Compound 62, N,N-bis(3-methoxybenzyl)-4-((2-(2-(piperidin-1-yl)ethoxy)ethoxy)methyl)thiazol-2-amine]
Group against VCAM (α4β1/VCAM-1): I (Group I maintains at least the same potency or better up to more than twice that of the EC50 of THI0349 ran on the same plate) | LAD Raw Fluorescence Units against LFA-1; Dose 3 µM; Ratio of raw counts Compound/THI0349 (αLβ2/ICAM-1): 0.37

COc1cccc(CN(Cc2cccc(OC)c2)c2nc(COCCOCCN3CCOCC3)cs2)c1 [Compound 61, N,N-bis(3-methoxybenzyl)-4-((2-(2-morpholinoethoxy)ethoxy)methyl)thiazol-2-amine]
Group against VCAM (α4β1/VCAM-1): I (Group I maintains at least the same potency or better up to more than twice that of the EC50 of THI0349 ran on the same plate) | LAD Raw Fluorescence Units against LFA-1; Dose 3 µM; Ratio of raw counts Compound/THI0349 (αLβ2/ICAM-1): 1.9
